From patent US20200275661A1 (published 2020)

Structure (SMILES)	melting point
Brc1c(OC(c2ccccc2)c2ncon2)ccc2ncccc12 (stereo not shown)	53 to 55 °C
CO/N=C/c1ccnc(C(Oc2cc(F)c3ncccc3c2)c2nnco2)c1 (stereo not shown)	174 to 177 °C
Clc1ccc(C(Nc2ccc3ncccc3c2)c2nnco2)cc1 (stereo not shown)	151 to 152 °C
CO/N=C/c1ccnc(C(Oc2cc(Br)c3ncccc3c2)c2nnco2)c1 (stereo not shown)	165 to 167 °C
CCOC(=O)c1coc(C(Oc2ccc3ncccc3c2)c2ccccc2)n1 (stereo not shown)	103 to 107 °C
CC(C)O/N=C/c1ccnc(C(Oc2cc(F)c3ncccc3c2)c2nnco2)c1 (stereo not shown)	126 to 129 °C
Clc1ccc(C(Nc2ccc3ncc(Br)cc3c2)c2nnco2)nc1 (stereo not shown)	214 to 217 °C
CSc1cnc2ccc(OC(c3cc(Cl)c(Cl)cn3)c3nnco3)cc2c1 (stereo not shown)	179 to 181 °C
c1ccc(C(Oc2cc3cccnc3cn2)c2nnco2)cc1 (stereo not shown)	136 to 139 °C
c1ccc(C(Oc2ccc3ncccc3c2)c2ccon2)cc1 (stereo not shown)	126 to 128 °C
CO/N=C/c1cnc2ccc(OC(c3ccc(F)cn3)c3nnco3)c(Br)c2c1 (stereo not shown)	172 to 173 °C
C#CCO/N=C/c1ccnc(C(Oc2cc(F)c3ncccc3c2)c2nnco2)c1 (stereo not shown)	128 to 130 °C
CCO/N=C/c1ccnc(C(Oc2cc(F)c3ncccc3c2)c2nnco2)c1 (stereo not shown)	168 to 171 °C
[O-][n+]1cc(F)ccc1C(Oc1ccc2c(ccc[n+]2[O-])c1)c1nnco1 (stereo not shown)	224 to 226 °C
c1ccc(C(Sc2ccc3ncccc3c2)c2nnco2)cc1 (stereo not shown)	126 to 130 °C
c1ccc(C(Oc2ccc3nccnc3c2)c2nnco2)cc1 (stereo not shown)	155 to 157 °C
CO/N=C/c1ccnc(C(Oc2cc(Cl)c3ncccc3c2)c2nnco2)c1 (stereo not shown)	166 to 168 °C
c1ccc(C(Oc2cnc3ccccc3c2)c2nnco2)cc1 (stereo not shown)	108 to 110 °C
c1ccc(C(Oc2ccc3ncccc3c2)c2ccco2)cc1 (stereo not shown)	215 °C (dec.)
c1ccc(C(Nc2ccc3ncccc3c2)c2nnco2)cc1 (stereo not shown)	161 to 163 °C
c1ccc(C(Oc2ccc3ncccc3c2)c2nncs2)cc1 (stereo not shown)	149 to 151 °C
Brc1cnc2ccc(OC(c3ccccc3)c3ncco3)cc2c1 (stereo not shown)	136 to 137 °C

Continued, values first:

melting point	Structure (SMILES)
112 to 115 °C	CC(C)O/N=C/c1cnc2ccc(OC(c3ccc(F)cn3)c3nnco3)cc2c1 (stereo not shown)
122 to 124 °C	c1ccc(C(Oc2ccc3ncccc3c2)c2ncco2)cc1 (stereo not shown)
168 to 172 °C	Cc1cnc2ccc(OC(c3ccc(C#N)cn3)c3ncco3)cc2c1 (stereo not shown)
158 to 159 °C	CC(C)O/N=C/c1cc(OC(c2ccc(F)cn2)c2nnco2)cc2cccnc12 (stereo not shown)
108 to 110 °C	Cc1cc(C(Oc2ccc3ncccc3c2)c2ccccc2)no1 (stereo not shown)
136 to 138 °C	CO/N=C/c1cnc2ccc(O[C@H](c3ccc(F)cn3)c3nnco3)cc2c1
148 to 152 °C	CO/N=C/c1cnc2ccc(OC(c3ccc(F)cn3)c3nnco3)cc2c1 (stereo not shown)
118 to 120 °C	Fc1ccc(C(Oc2ccc3ncc(/C=N/OCC(F)(F)F)cc3c2)c2nnco2)nc1 (stereo not shown)
136 to 137 °C	CO/N=C/c1cnc2ccc(O[C@@H](c3ccc(F)cn3)c3nnco3)cc2c1
71 to 73 °C	c1ccc(C(Oc2ccc3ncccc3c2)c2ccccn2)cc1 (stereo not shown)
136 to 139 °C	Cc1cnc2ccc(OC(c3ccc(Br)cn3)c3ncco3)cc2c1 (stereo not shown)
130 to 133 °C	CCO/N=C/c1cnc2ccc(OC(c3ccc(F)cn3)c3nnco3)cc2c1 (stereo not shown)
182 to 184 °C	CCO/N=C/c1cc(OC(c2ccc(F)cn2)c2nnco2)cc2cccnc12 (stereo not shown)
60 to 62 °C	FC(F)Oc1ccc(C(Oc2ccc3ncccc3c2)c2nncs2)nc1 (stereo not shown)
104 to 110 °C	Fc1ccc(C(Oc2ccc3ncccc3c2)c2ncco2)nc1 (stereo not shown)
79 to 81 °C	Cc1noc(C(Oc2ccc3ncccc3c2)c2ccc(F)cn2)n1 (stereo not shown)
111 to 113 °C	Cn1nnnc1C(Oc1ccc2ncccc2c1)c1ccccc1 (stereo not shown)
147 to 150 °C	Fc1ccc(C(Oc2cc(/C=C/C(F)(F)F)c3ncccc3c2)c2nnco2)nc1 (stereo not shown)
130 to 134 °C	CC(C)(O)c1coc(C(Oc2ccc3ncccc3c2)c2ccccc2)n1 (stereo not shown)
138 to 140 °C	c1ccc(C(Oc2ccc3ncccc3c2)c2ncon2)cc1 (stereo not shown)
154 to 158 °C	Fc1ccc(C(Oc2cnc3ncccc3c2)c2nnco2)nc1 (stereo not shown)
100 to 104 °C	Fc1ccc(C(Oc2ccc3ncccc3c2)c2ncno2)nc1 (stereo not shown)
110 to 113 °C	c1ccc(C(Oc2ccc3ncccc3c2)c2cnco2)cc1 (stereo not shown)
114 to 116 °C	Cc1nnc(C(Oc2ccc3ncccc3c2)c2ccccc2)o1 (stereo not shown)
176 to 182 °C	Fc1ccc(C(Oc2cc(Br)c3ncccc3c2)c2nnco2)nc1 (stereo not shown)
198 to 200 °C	Fc1ccc(C(Oc2cccc3ncccc23)c2nnco2)nc1 (stereo not shown)
164 to 166 °C	CO/N=C/c1cc(OC(c2ccc(F)cn2)c2nnco2)cc2cccnc12 (stereo not shown)
92 to 94 °C	Fc1ccc(C(Oc2ccc3ncccc3c2)c2nncs2)nc1 (stereo not shown)
176 to 177 °C	[O-][n+]1cccc2cc(OC(c3ccc(F)cn3)c3nnco3)ccc21 (stereo not shown)
115 to 119 °C	Fc1ccc(C(Oc2ccc3ncccc3c2)c2ncon2)nc1 (stereo not shown)
